Reference: publication PMC2728345 (Toxicology and applied pharmacology, 2009)
Substitutions are numbered along the chain they refer to. Entries after “also recorded” stand apart in the source; their conditions may differ.

Assays:
[1] = format: in vitro ADME, human; settings: ten individual microsomal samples, 100 µM bioallethrin, 30 min
CYP3A4 [2] = assay: CYP3A4 expression in human primary hepatocytes; settings: 10 µM, 24 h; for induction of CYP3A4 mRNA: four donors
human PXR [3] = target: T1, human PXR (Homo sapiens, UniProt O75469); assay: Activation of human PXR in stable line hPXR-HRE; settings: 10 µM, 24 h, ratio over DMSO
T1 sequence (O75469 1-434): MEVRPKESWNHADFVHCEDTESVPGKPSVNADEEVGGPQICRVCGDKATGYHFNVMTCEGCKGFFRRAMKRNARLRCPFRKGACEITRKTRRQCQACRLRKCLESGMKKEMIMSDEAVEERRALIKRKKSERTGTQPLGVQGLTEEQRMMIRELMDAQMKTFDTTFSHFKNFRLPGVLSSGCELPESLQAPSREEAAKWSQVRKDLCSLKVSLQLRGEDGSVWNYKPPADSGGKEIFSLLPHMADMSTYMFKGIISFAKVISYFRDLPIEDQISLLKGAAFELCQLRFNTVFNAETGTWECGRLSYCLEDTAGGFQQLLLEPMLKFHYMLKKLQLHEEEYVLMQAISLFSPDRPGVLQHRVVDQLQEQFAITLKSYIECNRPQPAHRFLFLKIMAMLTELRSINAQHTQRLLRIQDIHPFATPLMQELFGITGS

CYP3A4 [4] = assay: Metabolism of pyrethroids by recombinant CYP3A4; settings: Supersomes 5 pmol P450, pyrethroid 50 µM, NRS, 37°C
[5] = for hydrolysis by pooled human liver microsomes (rate group / extent, in words): 50 µg protein, pyrethroid 200 µM mixed with equal volume, Tris-HCl pH 7.4, 37°C
carboxylesterase HCE1 = target: T2, carboxylesterase HCE1 (Homo sapiens, UniProt P23141); assay: Hydrolysis of pyrethroids by recombinant HCE1; format: in vitro ADME; settings: for preference for hydrolysis by HCE1 over HCE2 (words): recombinant HCE1 vs HCE2 lysates, Tris-HCl pH 7.4
T2 sequence (P23141 18-567): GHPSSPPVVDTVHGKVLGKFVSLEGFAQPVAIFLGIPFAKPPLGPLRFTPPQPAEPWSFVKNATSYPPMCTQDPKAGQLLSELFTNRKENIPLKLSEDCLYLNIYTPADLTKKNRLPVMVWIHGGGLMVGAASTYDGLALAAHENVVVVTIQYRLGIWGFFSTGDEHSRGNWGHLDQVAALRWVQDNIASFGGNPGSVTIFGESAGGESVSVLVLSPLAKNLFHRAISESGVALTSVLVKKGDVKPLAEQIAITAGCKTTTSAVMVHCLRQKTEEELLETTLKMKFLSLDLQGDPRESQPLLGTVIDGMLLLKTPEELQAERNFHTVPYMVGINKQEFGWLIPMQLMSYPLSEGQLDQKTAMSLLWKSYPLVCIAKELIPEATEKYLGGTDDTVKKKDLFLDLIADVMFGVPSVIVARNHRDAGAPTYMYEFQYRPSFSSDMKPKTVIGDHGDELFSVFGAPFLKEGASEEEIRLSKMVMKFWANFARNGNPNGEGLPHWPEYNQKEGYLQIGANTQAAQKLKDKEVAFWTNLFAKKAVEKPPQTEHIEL

rat PXR = target: T3, rat PXR (Rattus norvegicus, UniProt Q9R1A7); assay: Activation of rat PXR, cotransfection with CYP3A4-DP-Luc in HepG2; settings: 24 h
T3 sequence (Q9R1A7 1-431): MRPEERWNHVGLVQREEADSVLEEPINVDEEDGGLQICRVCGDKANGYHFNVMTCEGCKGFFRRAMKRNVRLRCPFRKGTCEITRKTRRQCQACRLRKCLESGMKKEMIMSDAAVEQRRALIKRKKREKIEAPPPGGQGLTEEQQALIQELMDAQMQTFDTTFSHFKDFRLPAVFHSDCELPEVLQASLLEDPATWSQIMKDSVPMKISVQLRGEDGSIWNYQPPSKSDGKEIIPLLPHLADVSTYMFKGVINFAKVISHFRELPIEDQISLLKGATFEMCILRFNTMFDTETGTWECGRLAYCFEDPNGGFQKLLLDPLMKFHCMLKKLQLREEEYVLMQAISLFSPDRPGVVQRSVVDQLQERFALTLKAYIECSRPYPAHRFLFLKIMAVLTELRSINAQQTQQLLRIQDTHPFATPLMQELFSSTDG

carboxylesterase HCE2 = carboxylesterase HCE2 (Homo sapiens, UniProt O00748); assay: Hydrolysis of pyrethroids by recombinant HCE2; format: in vitro ADME; settings: for preference for hydrolysis by HCE2 over HCE1: recombinant HCE2 vs HCE1 lysates, Tris-HCl pH 7.4
human PXR [6] = target: T1, human PXR; assay: Activation of human PXR in hPXR-HRE cells transfected with HCE1, HCE2 or vector
rats or mice = settings: in vivo, po; cited from earlier work
human PXR variant S208F = target: T4, human PXR variant S208F (Homo sapiens, UniProt O75469, S208F); settings: HepG2 cotransfection, 10 µM, 24 h; words: compared with wild-type PXR
T4 sequence (O75469 1-434 S208F): T1 sequence (O75469 1-434) with S208F

CYP3A4 [7] = assay: CYP3A4 mRNA in cell lines HepG2, Hop92 and LS180; format: cell-based, human; settings: 24 h
human PXR variant L412I = target: T5, human PXR variant L412I (Homo sapiens, UniProt O75469, L412I); settings: HepG2 cotransfection, 10 µM, 24 h
T5 sequence (O75469 1-434 L412I): T1 sequence (O75469 1-434) with L412I

Chain of carboxylesterase HCE2 (O00748 27-559): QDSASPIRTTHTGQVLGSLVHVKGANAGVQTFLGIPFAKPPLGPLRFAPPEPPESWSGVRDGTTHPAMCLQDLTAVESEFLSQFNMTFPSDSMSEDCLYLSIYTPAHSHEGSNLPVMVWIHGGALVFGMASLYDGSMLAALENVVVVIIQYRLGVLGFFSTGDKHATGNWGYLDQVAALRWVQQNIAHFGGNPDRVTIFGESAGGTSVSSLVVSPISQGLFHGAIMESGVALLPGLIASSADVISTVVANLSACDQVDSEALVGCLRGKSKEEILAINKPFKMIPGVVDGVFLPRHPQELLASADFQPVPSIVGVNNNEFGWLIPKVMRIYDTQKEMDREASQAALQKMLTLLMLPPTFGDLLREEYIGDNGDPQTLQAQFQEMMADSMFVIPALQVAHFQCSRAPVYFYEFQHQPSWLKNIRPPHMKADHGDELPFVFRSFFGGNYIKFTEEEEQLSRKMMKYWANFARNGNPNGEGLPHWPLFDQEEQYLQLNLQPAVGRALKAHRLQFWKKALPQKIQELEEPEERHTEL

| SMILES | induction of CYP3A4 mRNA (CYP3A4 [2]) | activation of human PXR (human PXR [3]) | extent of metabolism by CYP3A4 (CYP3A4 [4]) | hydrolysis by pooled human liver microsomes (rate group / extent, in words) [5] | preference for hydrolysis by HCE1 over HCE2 (words) (carboxylesterase HCE1) | activation of rat PXR (rat PXR) | preference for hydrolysis by HCE2 over HCE1 (carboxylesterase HCE2) | also measured |
| --- | --- | --- | --- | --- | --- | --- | --- | --- |
| C=CCC1=C(C)C(OC(=O)[C@@H]2[C@@H](C=C(C)C)C2(C)C)CC1=O (stereo partly drawn) [Bioallethrin] | relatively weaker inducers; also recorded: least induction | activated PXR with less potency | greatest extent | rapidly hydrolyzed | HCE1 preferably hydrolyzed | 2.0 fold | – | variation of overall hydrolysis among individual samples [1]: ~ 2 fold; hydrolysis rate relative to bifenthrin ([5]; pooled human liver microsomes): 8 times |
| CC1(C)[C@H](C=C(Cl)Cl)[C@H]1C(=O)OCc1cccc(Oc2ccccc2)c1 [Per-1, trans-permethrin] | – | – | – | high rate | – | – | comparably hydrolyzed by both enzymes | hydrolysis by HCE2 faster than by HCE1 (carboxylesterase HCE2; recombinant enzymes): 15% |
| CC(C)=CC1C(C(=O)OCN2C(=O)C3=C(CCCC3)C2=O)C1(C)C (stereo not drawn) [Tetramethrin] | relatively weaker inducers; also recorded: minimal induction; also recorded: least induction; also recorded: weakest CYP3A4 inducer | – | greatest extent | – | – | – | HCE2 preferably hydrolyzed; also recorded: slightly more active than HCE1 | CYP3A4 protein (Western blotting) (CYP3A4 [2]): slight increase; hydrolysis rate relative to tau-fluvalinate ([5]; pooled human liver microsomes): 9 times; lowest concentration causing significant activation of PXR, HCE1 (human PXR [6]; HCE1 co-transfected cells, 0.5-10 µM): 5 µM; lowest concentration causing significant activation of PXR, HCE2 (human PXR [6]; HCE2-cotransfected cells, 0.5-10 µM): > 10 µM; lowest concentration causing significant activation of PXR, vector (human PXR [6]; cells cotransfected by the vector, 0.5-10 µM): 1 µM; effect of carboxylesterase cotransfection on PXR activation (human PXR [6]; hPXR-HRE cells transfected with HCE1 or HCE2 vs vector, 10 µM): markedly decreased; decrease in PXR activation, HCE1 versus HCE2 cotransfection (human PXR [6]; hPXR-HRE cells, 10 µM): decreased more PXR activation than HCE1 |
| CC1(C)C(C=C(Cl)Cl)C1C(=O)OCc1cccc(Oc2ccccc2)c1 (stereo not drawn) [Permethrin] | – | relatively weak activators of human PXR | – | – | – | efficaciously activated rat PXR | HCE2 preferably hydrolyzed | – |
| Cc1c(COC(=O)[C@@H]2[C@H](/C=C(\Cl)C(F)(F)F)C2(C)C)cccc1-c1ccccc1 (racemic) [Bifenthrin] | ≥ 2.5 fold | – | – | – | – | efficaciously activated rat PXR | HCE2 preferably hydrolyzed | – |
| CC(C)[C@@H](Nc1ccc(C(F)(F)F)cc1Cl)C(=O)OC(C#N)c1cccc(Oc2ccccc2)c1 (stereo partly drawn) [tau-Fluvalinate] | – | 3.5 fold | least extent | low rate | – | – | HCE2 preferably hydrolyzed | – |
| CC(C)=C[C@@H]1[C@@H](C(=O)OCc2coc(Cc3ccccc3)c2)C1(C)C [Bioresmethrin] | relatively weaker inducers; also recorded: least induction | 1.5 fold | – | highest extent | hydrolyzed overwhelmingly by HCE1 | – | – | LD50 (rats or mice): 1244 mg/kg; hydrolysis by HCE1 relative to esfenvalerate (carboxylesterase HCE1; recombinant HCE1): 7 times; preference for hydrolysis by HCE1 over HCE2 (words) (carboxylesterase HCE1; listed as bioresmethrin): HCE1 preferably hydrolyzed |
| CC1(C)[C@H](C(=O)OCc2cccc(Oc3ccccc3)c2)[C@@H]1C=C(Cl)Cl [Per-2, cis-permethrin] | – | – | – | low rate | – | – | – | hydrolysis by HCE2 relative to HCE1 (carboxylesterase HCE2; recombinant enzymes): 7 times |
| CC(C)[C@H](C(=O)O[C@H](C#N)c1cccc(Oc2ccccc2)c1)c1ccc(Cl)cc1 [Esfenvalerate] | ≥ 2.5 fold | – | – | low rate | HCE1 preferably hydrolyzed | – | – | LD50 (rats or mice): 325 mg/kg; activation of PXR variant S208F (human PXR variant S208F): no differences; concentration dependence of CYP3A4 mRNA induction (CYP3A4 [7]; HepG2 cells, 0–10 µM): concentration-dependent manner; lowest concentration with significant induction of CYP3A4 mRNA (CYP3A4 [7]; HepG2 cells, 0–10 µM): 0.5 µM; induction of CYP3A4 mRNA in HepG2 (CYP3A4 [7]; HepG2 cells, 1 µM): significant induction; induction of CYP3A4 mRNA in Hop92 (CYP3A4 [7]; Hop92 cells, 1 µM): significant induction; induction of CYP3A4 mRNA in LS180 (CYP3A4 [7]; LS180 cells, 1 µM): significant induction; activation of PXR variant L412I compared with wild-type PXR (human PXR variant L412I): less extent than the wild-type PXR |
